Residues, ends and D or L forms follow the SMILES beside them. *: point of attachment. Cbz = O=C(OCc1ccccc1)*
Assays:
[1] = Degree of decrease in blood glucose after intraduodenal administration with insulin in rats; format: in vivo, rat (Male SD rats); settings: male SD rats, 1.5 mg/10 body weight with insulin 1.25 U/10 g, mean
Protocol: Each (Administration: 1.5 mg/10 body weight) of the absorption promoters, phenylalanine derivatives as previously listed in the table was dissolved or suspended in 0.01M phosphate buffer (pH 7.5) and the solution or suspension was mixed with aqueous insulin (Administation: 1.25 U/10 g body weight) solution. Male SD rats, 6 weeks old, were intraduodenally administrated with predetermined amounts of the mixtures after being incised abdominally. The incised wounds were sutured quickly. A predetermined duration later, the percent decreases in blood glucose were determined. In the experiment, four rats a group were used, and the experiment was repeated 2 to 5 times. The mean values of the thus obtained data were described in the table.

[2] = Toxicity studies of phenylalanine derivatives, oral, in female CD-1(ICR) mice; settings: mouse, in vivo, suspended in 0.5% CMC
From the text: Toxicity Studies of Phenylalanine Derivatives with Oral IN Potentiating Activity in Female CD-1(ICR) Mice are as follows:
Phenylalanine derivatives were suspended in 0.5% CMC.

[3] = Usefulness as absorption promoter; settings: statement in words, no data
[4] = Oral insulin absorption in female ICR-CD-1 mice: percent decrease in blood glucose and degree of elevation of blood insulin; format: in vivo, mouse (Female ICR-CD-1 mice); settings: vs control group
Protocol: The absorption promoter samples listed in Table 2 were dissolved or suspended in 0.5% CMC-0.05M tris-HCl buffers (pH: 7.8) and the solutions or suspensions were mixed with aqueous insulin solution. Female ICR-CD-1 mice 5 to 7 weeks old were orally administered predetermined amounts of the mixtures. A predetermined duration later, the percent decrease in blood glucose and the degree of elevation of blood insulin as compared with the control group were measured. The symbol "Z" in the structural formulas in the table represents a benzyloxycarbonyl group. The upper figures in the columns "effectiveness" represent the percent decrease in blood glucose and the lower parenthesized figures indicate the degree of elevation in blood insulin.

[5] = sample 6.0 mg/10 g with insulin 2.5 U/10 g, 60 minutes
[6] = sample 6.0 mg/10 g with insulin 2.5 U/10 g, 30 minutes

Row | Structure (SMILES) | Decrease in Blood Glucose ([1]; 30 minutes) | Decrease in Blood Glucose ([1]; 60 minutes) | LD50 [2] | other results
1 | O=C(C=Cc1cccc(Cl)c1)N[C@@H](Cc1ccccc1)C(=O)O [Sample S-43, N-(3-chlorocinnamoyl)-L-phenylalanine] | 50.9% | 46.9% | – | –
2 | O=C(COc1ccccc1)N[C@@H](Cc1ccccc1)C(=O)O [Sample S-5, N-phenoxyacetyl-L-phenylalanine] | – | – | > 4000 mg/kg | –
3 | Cc1cccc(C=CC(=O)N[C@H](Cc2ccccc2)C(=O)O)c1 [Sample S-42, N-(3-methylcinnamoyl)-D-phenylalanine] | 48.8% | 40.7% | – | –
4 | O=C(C=Cc1cccc2ccccc12)N[C@@H](Cc1ccccc1)C(=O)O [Sample S-45, N-(1-naphthylacryloyl)-L-phenylalanine] | 41.2% | 35.4% | – | –
5 | O=C(C=Cc1cccc(Cl)c1)N[C@H](Cc1ccccc1)C(=O)O [Sample S-44, N-(3-chlorocinnamoyl)-D-phenylalanine] | 55.0% | 49.3% | – | –
6 | Cc1ccc(C=CC(=O)N[C@H](Cc2ccccc2)C(=O)O)cc1 [Sample S-47, N-(4-methylcinnamoyl)-D-phenylalanine] | 52.3% | 41.0% | – | –
7 | O=C(COc1cccc2ccccc12)N[C@@H](Cc1ccccc1)C(=O)O [Sample S-11, N-[(1-naphthoxy)acetyl]-L-phenylalanine] | – | – | > 4000 mg/kg | –
8 | N[C@@H](Cc1ccccc1)C(=O)O [Phenylalanine] | – | – | – | usefulness as absorption promoter [3]: not useful as absorption promoters
9 | CCc1ccc(C=CC(=O)N[C@H](Cc2ccccc2)C(=O)O)cc1 [Sample S-40, N-(4-ethylcinnamoyl)-D-phenylalanine] | 33.9% | 28.1% | – | –
10 | O=C(C=Cc1ccc2ccccc2c1)N[C@@H](Cc1ccccc1)C(=O)O [Sample S-37, N-(2-Naphthylacryloyl)-L-phenylalanine] | 55.3% | 40.2% | – | –
11 | O=C(N[C@@H](Cc1ccccc1)C(=O)N[C@@H](Cc1ccccc1)C(=O)O)OCc1ccccc1 [Sample S-7, N-benzyloxycarbonyl-L-phenylalanyl-L-phenylalanine] (Cbz-Phe-Phe-OH) | – | – | > 3000 mg/kg | –
12 | O=C(N[C@@H](Cc1ccccc1)C(=O)O)OCc1ccccc1 [Sample S-15, N-benzyloxycarbonyl-L-phenylalanine] | – | – | > 2750 mg/kg | –
13 | O=C(COc1ccc2ccccc2c1)N[C@@H](Cc1ccccc1)C(=O)O [Sample S-12, N-[(2-naphthoxy)acetyl]-L-phenylalanine] | – | – | > 4000 mg/kg | –
14 | O=C(COc1ccc(Cl)cc1)N[C@@H](Cc1ccccc1)C(=O)O [Sample S-13, N-[(4-chlorophenoxy)acetyl]-L-phenylalanine] | – | – | > 3500 mg/kg | –
15 | COc1ccc(COC(=O)N[C@@H](Cc2ccccc2)C(=O)O)cc1 [Sample S-17, N-(4-methoxybenzyloxycarbonyl)-L-phenylalanine] | – | – | 750 mg/kg | –
16 | O=C(C=Cc1cccc2ccccc12)N[C@H](Cc1ccccc1)C(=O)O [Sample S-46, N-(1-naphthylacryloyl)-D-phenylalanine] | 41.6% | 28.8% | – | –
17 | CC(=O)N[C@@H](Cc1ccccc1)C(=O)O [N-acetylphenylalanine] | – | – | – | usefulness as absorption promoter [3]: not useful as absorption promoters
18 | O=C(N[C@H](Cc1ccccc1)C(=O)O)OCc1ccccc1 [Sample S-18, N-benzyloxycarbonyl-D-phenylalanine] | – | – | > 4000 mg/kg | –
19 | O=C(N[C@@H](Cc1ccc(O)cc1)C(=O)O)OCc1ccccc1 [Sample S-16, N-benzyloxycarbonyl-L-tyrosne] | – | – | – | Decrease in Blood Glucose [4, 5]: 27.2%
20 | O=C(NC(Cc1ccc(F)cc1)C(=O)N[C@@H](Cc1ccccc1)C(=O)O)OCc1ccccc1 (mixture of isomers) [Sample S-22, N-benzyloxycarbonyl-4-fluoro-DL-phenylalanyl-L-phenylalanine] | – | – | – | Decrease in Blood Glucose ([4]; sample 3.0 mg/10 g with insulin 2.5 U/10 g, 30 minutes): 63.1%
21 | O=C(N[C@H](Cc1ccccc1)C(=O)O)C(Cl)=Cc1ccccc1 [Sample S-50, N-(α-Chlorocinnamoyl)-D-phenylalanine 1/2C2 H5 OH] | 79.0% | 74.9% | – | –
22 | O=C(CCCc1ccccc1)N[C@@H](Cc1ccccc1)C(=O)O [Sample S-8, N-(4-phenylbutyroyl)-L-phenylalanine] | – | – | – | Decrease in Blood Glucose [4, 6]: 57.1%; Decrease in Blood Glucose [4, 5]: 35.6%
23 | CCc1ccc(C=CC(=O)N[C@@H](Cc2ccccc2)C(=O)O)cc1 [Sample S-39, N-(4-ethylcinnamoyl)-L-phenylalanine] | 56.0% | 32.5% | – | –
24 | O=C(N[C@H](Cc1ccccc1)C(=O)O)C(F)=Cc1ccccc1 [Sample S-48, N-(α-fluorocinnamoyl)-D-phenylalanine] | 73.7% | 72.9% | – | –
25 | O=C(C=Cc1ccc2ccccc2c1)N[C@H](Cc1ccccc1)C(=O)O [Sample S-38, N-(2-Naphthylacryloyl)-D-phenylalanine] | 27.0% | 24.7% | – | –
26 | O=C(C=Cc1ccccc1)N[C@@H](Cc1ccccc1)C(=O)O [Sample S-3, N-cinnamoyl-L-phenylalanine] | – | – | > 2500 mg/kg | –
27 | O=C(N[C@@H](Cc1ccccc1)C(=O)N[C@@H](Cc1ccc(O)cc1)C(=O)O)OCc1ccccc1 [Sample S-10, N-benzyloxycarbonyl-L-phenylalanyl-L-tyrosine] (Cbz-Phe-Tyr-OH) | – | – | > 3000 mg/kg | –
28 | O=C(N[C@@H](Cc1ccccc1)C(=O)O)C(Cl)=Cc1ccccc1 [Sample S-49, N-(α-Chlorocinnamoyl)-L-phenylalanine 1/2C2 H5 OH] | 63.2% | 49.1% | – | –
29 | Cc1cccc(C=CC(=O)N[C@@H](Cc2ccccc2)C(=O)O)c1 [Sample S-41, N-(3-methylcinnamoyl)-L-phenylalanine] | 50.5% | 35.3% | – | –
30 | O=C(COc1ccc([N+](=O)[O-])cc1)NC(Cc1ccc([N+](=O)[O-])cc1)C(=O)O (racemic) [Sample S-2, N-[(4-nitrophenoxy)acetyl]-4-nitro-DL-phenylalanine] | – | – | – | Decrease in Blood Glucose [4, 6]: 23.2%

Reference: patent US4670584A, “Pharmaceutical composition having an excellent absorption property” (Ajinomoto Company Incorporated, priority 1986, dated 1987)
